Test results from US20250361230A1, “LATS Inhibitors and Uses Thereof” (The USA, as Represented by the Secretary, Dept. of Heath …, priority 2022, published 2025).
pIC50: −log10 of the molar value.

Key:
Type in all cases: biochemical
AKT = AKT (Homo sapiens, UniProt P31749); assay: RBC HotSpot kinase assay (33P-ATP, P81 filter-binding), AKT; conditions: Table 28, biochemical kinase assay; read-out: AKT IC50
Protocol: (§1) Biochemical kinase inhibitory data was obtained for various exemplary compounds prepared according to the above.
(§2) The reagents used are as follows: Base Reaction buffer; 20 mM Hepes (pH 7.5), 10 mM MgCl2, 1 mM EGTA, 0.01% Brij35, 0.02 mg/ml BSA, 0.1 mM Na3VO4, 2 mM DTT, […]. Required cofactors were added individually to each kinase reaction.
(§3) The reaction procedure was as follows: • 1) Substrates were prepared in freshly prepared Reaction Buffer. • 2) Any required cofactors were delivered to the substrate solution above. • 3) Kinase was delivered into the substrate solution and gently mixed. • 4) Compounds were delivered in 100% DMSO into the kinase reaction mixture by Acoustic technology (Echo550; nanoliter range), followed by incubation for 20 min at room temp. • 5) ^33P-ATP was delivered into the reaction mixture to initiate the reaction. • 6) The mixture was incubated for 2 hours at room temperature. • 7) Kinase activity was detected by P81 filter-binding method.
(§4) Using the above functional assay, the inhibitory activity of the compounds for LATS1/2 versus AKT was characterized. The assays were typically run in a 10-point curve, in singlet, to produce a titration curve from which an IC50 value was obtained.
(§5) The reagents used are as follows: Base Reaction buffer; 20 mM Hepes (pH 7.5), 10 mM MgCl2, 1 mM EGTA, 0.01% Brij35, 0.02 mg/ml BSA, 0.1 mM Na3VO4, 2 mM DTT, 1% DMSO. Required cofactors were added individually to each kinase reaction.
(§6) Biochemical kinase inhibitory data was obtained for various exemplary compounds prepared according to the above in accordance with the protocols described in Examples 4 and 8. All biological activities are IC50, in nM.

LATS1 = molecular target: T1, LATS1 (Homo sapiens, UniProt O95835); assay: RBC HotSpot kinase assay (33P-ATP, P81 filter-binding), LATS1; conditions: Table 28, biochemical kinase assay; read-out: LATS1 IC50
T1 sequence (O95835 1-1130): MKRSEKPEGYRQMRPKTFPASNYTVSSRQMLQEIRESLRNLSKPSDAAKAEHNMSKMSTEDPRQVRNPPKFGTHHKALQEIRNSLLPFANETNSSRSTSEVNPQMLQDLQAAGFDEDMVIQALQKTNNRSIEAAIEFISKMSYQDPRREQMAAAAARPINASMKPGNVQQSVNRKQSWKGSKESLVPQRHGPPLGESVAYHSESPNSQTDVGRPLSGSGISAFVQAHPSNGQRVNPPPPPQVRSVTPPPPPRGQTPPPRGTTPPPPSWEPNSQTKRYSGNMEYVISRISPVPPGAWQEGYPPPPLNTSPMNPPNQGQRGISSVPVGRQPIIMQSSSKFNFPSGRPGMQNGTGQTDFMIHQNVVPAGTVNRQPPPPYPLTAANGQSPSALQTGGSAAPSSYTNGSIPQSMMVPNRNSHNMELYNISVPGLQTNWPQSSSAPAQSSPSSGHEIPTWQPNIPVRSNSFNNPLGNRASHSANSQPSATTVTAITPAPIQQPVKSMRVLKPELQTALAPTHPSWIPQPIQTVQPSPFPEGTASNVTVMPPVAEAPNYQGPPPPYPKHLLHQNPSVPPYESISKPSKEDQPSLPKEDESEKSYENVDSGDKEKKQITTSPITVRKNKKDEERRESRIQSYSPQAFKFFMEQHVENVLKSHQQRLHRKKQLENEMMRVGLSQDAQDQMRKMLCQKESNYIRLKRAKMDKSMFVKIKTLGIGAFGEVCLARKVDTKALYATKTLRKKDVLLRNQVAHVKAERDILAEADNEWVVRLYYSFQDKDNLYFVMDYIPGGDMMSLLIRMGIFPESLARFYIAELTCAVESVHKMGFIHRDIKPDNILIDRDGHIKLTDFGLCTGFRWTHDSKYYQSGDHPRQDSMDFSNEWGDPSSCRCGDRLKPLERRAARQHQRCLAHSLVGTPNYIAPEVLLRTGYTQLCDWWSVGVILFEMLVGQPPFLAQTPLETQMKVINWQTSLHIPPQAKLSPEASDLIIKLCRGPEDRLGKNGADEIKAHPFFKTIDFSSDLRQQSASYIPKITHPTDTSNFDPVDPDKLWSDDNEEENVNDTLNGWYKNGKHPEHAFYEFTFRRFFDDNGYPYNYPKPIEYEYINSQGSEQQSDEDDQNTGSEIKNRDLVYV
Protocol: as §1, §2, §3, §4, §5, §6

LATS2 = molecular target: T2, LATS2 (Homo sapiens, UniProt Q9NRM7); assay: RBC HotSpot kinase assay (33P-ATP, P81 filter-binding), LATS2; conditions: Table 28, biochemical kinase assay; read-out: LATS2 IC50
T2 sequence (Q9NRM7 1-1088): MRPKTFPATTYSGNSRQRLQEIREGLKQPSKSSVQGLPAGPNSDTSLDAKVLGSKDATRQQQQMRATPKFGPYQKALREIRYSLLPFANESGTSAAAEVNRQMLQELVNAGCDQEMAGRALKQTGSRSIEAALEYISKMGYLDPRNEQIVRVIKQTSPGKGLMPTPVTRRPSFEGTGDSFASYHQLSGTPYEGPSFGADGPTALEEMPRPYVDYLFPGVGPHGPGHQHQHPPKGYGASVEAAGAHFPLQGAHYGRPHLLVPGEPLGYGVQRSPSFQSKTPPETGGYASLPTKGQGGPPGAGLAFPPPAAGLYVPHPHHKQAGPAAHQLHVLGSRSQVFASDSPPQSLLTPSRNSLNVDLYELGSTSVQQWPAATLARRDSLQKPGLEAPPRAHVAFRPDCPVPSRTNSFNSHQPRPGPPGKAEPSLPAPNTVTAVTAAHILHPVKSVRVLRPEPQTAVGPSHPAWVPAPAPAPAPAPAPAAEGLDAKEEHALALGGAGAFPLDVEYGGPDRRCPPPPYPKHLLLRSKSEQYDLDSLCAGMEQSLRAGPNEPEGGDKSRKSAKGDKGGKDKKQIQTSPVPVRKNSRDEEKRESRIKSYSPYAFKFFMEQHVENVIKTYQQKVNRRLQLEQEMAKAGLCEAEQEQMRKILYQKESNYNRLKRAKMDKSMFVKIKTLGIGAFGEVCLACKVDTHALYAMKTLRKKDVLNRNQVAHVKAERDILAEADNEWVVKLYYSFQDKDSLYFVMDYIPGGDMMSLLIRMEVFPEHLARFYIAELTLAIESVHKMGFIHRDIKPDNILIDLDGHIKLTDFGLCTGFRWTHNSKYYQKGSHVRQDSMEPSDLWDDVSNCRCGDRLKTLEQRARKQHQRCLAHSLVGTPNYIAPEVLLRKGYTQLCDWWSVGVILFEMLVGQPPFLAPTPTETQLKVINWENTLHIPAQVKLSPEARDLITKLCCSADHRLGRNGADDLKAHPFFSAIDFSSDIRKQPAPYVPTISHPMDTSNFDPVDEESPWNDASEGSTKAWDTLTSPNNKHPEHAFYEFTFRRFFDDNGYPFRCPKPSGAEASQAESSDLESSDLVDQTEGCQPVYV
Protocol: as §1, §2, §3, §4, §5, §6

Chain of AKT (P31749 whole entry): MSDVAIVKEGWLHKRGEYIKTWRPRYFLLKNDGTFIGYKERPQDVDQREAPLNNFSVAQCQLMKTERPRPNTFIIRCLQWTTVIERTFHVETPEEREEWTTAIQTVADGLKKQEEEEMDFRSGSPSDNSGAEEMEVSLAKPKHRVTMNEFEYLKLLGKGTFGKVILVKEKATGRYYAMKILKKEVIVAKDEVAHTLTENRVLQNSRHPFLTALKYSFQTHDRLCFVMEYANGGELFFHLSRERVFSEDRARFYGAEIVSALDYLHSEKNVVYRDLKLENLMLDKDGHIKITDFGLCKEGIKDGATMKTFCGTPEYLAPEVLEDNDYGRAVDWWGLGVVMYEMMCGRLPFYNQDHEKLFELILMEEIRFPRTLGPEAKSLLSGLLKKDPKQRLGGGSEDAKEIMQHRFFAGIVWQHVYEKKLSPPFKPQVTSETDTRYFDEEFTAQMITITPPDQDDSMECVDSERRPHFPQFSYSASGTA

SMILES | pIC50 (AKT) | pIC50 (LATS1) | pIC50 (LATS2)
Cc1nnc(C2(c3ccc(-c4ccnc5[nH]cc(F)c45)cc3)CCNCC2)o1 [Compound 190, 2-(4-(4-(3-fluoro-1H-pyrrolo[2,3-b]pyridin-4-yl)phenyl)piperidin-4-yl)-5-methyl-1,3,4-oxadiazole] | 7.74 | 7.70 | 7.77
Cc1cc(-c2ccnc3[nH]cc(C)c23)cc(F)c1[C@@]1(O)[C@H](C)CN(C(=O)CN)C[C@@H]1C [Compound 314, 2-amino-1-((3S,4s,5R)-4-(2-fluoro-6-methyl-4-(3-methyl-1H-pyrrolo[2,3-b]pyridin-4-yl)phenyl)-4-hydroxy-3,5-dimethylpiperidin-1-yl)ethan-1-one] | 6.60 | 8.80 | 8.32
c1cc(-c2ccc(CN3CCCC3)cc2)c2cc[nH]c2n1 [Compound 277, 4-(4-(pyrrolidin-1-ylmethyl)phenyl)-1H-pyrrolo[2,3-b]pyridine] | 5.66 | 7.20 | 7.00
COc1cc(-c2ccnc3[nH]cc(F)c23)ncc1[C@@]1(O)[C@H](C)CNC[C@@H]1C [Compound 4, (3R,4s,5S)-4-(6-(3-fluoro-1H-pyrrolo[2,3-b]pyridin-4-yl)-4-methoxypyridin-3-yl)-3,5-dimethylpiperidin-4-ol] | 5.38 | 7.74 | 7.25
C[C@@H]1CN(C(=O)CN)C[C@H](C)C1(O)c1cnc(-c2ccnc3[nH]cc(F)c23)cc1F (stereo partly drawn) [Compound 87, 2-amino-1-((3S,5R)-4-(4-fluoro-6-(3-fluoro-1H-pyrrolo[2,3-b]pyridin-4-yl)pyridin-3-yl)-4-hydroxy-3,5-dimethylpiperidin-1-yl)ethan-1-one] | 5.40 | 7.32 | 7.33
Cc1cc(-c2ccnc3[nH]cc(F)c23)cc(F)c1[C@@]1(O)[C@H](C)CN(C(=O)[C@@H]2COCCN2)C[C@@H]1C [Compound 68, ((3S,4R,5R)-4-(2-fluoro-4-(3-fluoro-1H-pyrrolo[2,3-b]pyridin-4-yl)-6-methylphenyl)-4-hydroxy-3,5-dimethylpiperidin-1-yl)((S)-morpholin-3-yl)methanone] | 5.78 | 7.86 | 8.18
C[C@H](N)C(=O)N1C[C@@H](C)C(O)(c2c(F)cc(-c3ccnc4[nH]cc(F)c34)cc2F)[C@@H](C)C1 (stereo partly drawn) [Compound 82, (2S)-2-amino-1-((3S,5R)-4-(2,6-difluoro-4-(3-fluoro-1H-pyrrolo[2,3-b]pyridin-4-yl)phenyl)-4-hydroxy-3,5-dimethylpiperidin-1-yl)propan-1-one] | 6.30 | 7.84 | 7.85
Cc1cc(-c2ccnc3[nH]cc(F)c23)cc(F)c1[C@@]1(O)[C@H](C)CN(C(=O)[C@@H]2C[C@H](O)CN2)C[C@@H]1C [Compound 70, ((3S,4R,5R)-4-(2-fluoro-4-(3-fluoro-1H-pyrrolo[2,3-b]pyridin-4-yl)-6-methylphenyl)-4-hydroxy-3,5-dimethylpiperidin-1-yl)((2S,4S)-4-hydroxypyrrolidin-2-yl)methanone] | 6.42 | 8.11 | 8.60
COC(=O)c1c[nH]c2nccc(-c3ccc(C4(O)CCNCC4)c(Cl)c3)c12 [Compound 101, methyl 4-(3-chloro-4-(4-hydroxypiperidin-4-yl)phenyl)-1H-pyrrolo[2,3-b]pyridine-3-carboxylate] | 5.71 | 8.15 | 7.15

Now from value to molecule:

pIC50 (AKT) | pIC50 (LATS1) | pIC50 (LATS2) | SMILES
6.60 | 8.52 | 8.55 | C[C@@H]1CN(C2COC2)C[C@H](C)[C@@]1(O)c1ccc(-c2ccnc3[nH]cc(F)c23)cc1Cl [Compound 21, (3S,4s,5R)-4-(2-chloro-4-(3-fluoro-1H-pyrrolo[2,3-b]pyridin-4-yl)phenyl)-3,5-dimethyl-1-(oxetan-3-yl)piperidin-4-ol]
5.69 | 7.51 | 7.44 | CN1CCC(O)(c2ccc(-c3ccnc4[nH]cc(-c5cccnc5)c34)cc2)CC1 [Compound 128, 1-methyl-4-(4-(3-(pyridin-3-yl)-1H-pyrrolo[2,3-b]pyridin-4-yl)phenyl)piperidin-4-ol]
6.17 | 8.07 | 8.47 | Cc1cc(-c2ccnc3[nH]cc(F)c23)cc(F)c1[C@@]1(O)[C@H](C)CN(C(=O)[C@@H]2C[C@@H](O)CN2)C[C@@H]1C [Compound 69, ((3S,4R,5R)-4-(2-fluoro-4-(3-fluoro-1H-pyrrolo[2,3-b]pyridin-4-yl)-6-methylphenyl)-4-hydroxy-3,5-dimethylpiperidin-1-yl)((2S,4R)-4-hydroxypyrrolidin-2-yl)methanone]
5.72 | 6.64 | 6.71 | CC1CC(O)(c2ccc(-c3ccnc4[nH]cc(F)c34)cc2Cl)CC(C)N1 (stereo not drawn) [Compound 100, 4-(2-chloro-4-(3-fluoro-1H-pyrrolo[2,3-b]pyridin-4-yl)phenyl)-2,6-dimethylpiperidin-4-ol]
5.55 | 8.33 | 7.82 | Cc1cc(-c2ccnc3[nH]cc(F)c23)ncc1CN [Compound 215, (6-(3-fluoro-1H-pyrrolo[2,3-b]pyridin-4-yl)-4-methylpyridin-3-yl)methanamine]
6.77 | 7.78 | 7.82 | NCc1ccc(-c2cc(-c3ccnc4[nH]cc(Br)c34)ccc2C2CCNCC2)cc1 [Compound 151, (5′-(3-bromo-1H-pyrrolo[2,3-b]pyridin-4-yl)-2′-(piperidin-4-yl)-[1,1′-biphenyl]-4-yl)methanamine]
